Data published in ChEMBL document CHEMBL1201861, “Genomics of Drug Sensitity in Cancer screening data, Wellcome Trust Sanger Institute”.

Assays:
Experiment in all cases: cells
D-502MG = format: functional, cell-based, Homo sapiens; conditions: Homo sapiens, D-502MG
Description: SANGER: Inhibition of human D-502MG cell growth in a cell viability assay.

D-542MG = format: functional, cell-based, Homo sapiens; conditions: Homo sapiens, D-542MG
Description: SANGER: Inhibition of human D-542MG cell growth in a cell viability assay.

GI-ME-N = format: functional, cell-based, Homo sapiens; conditions: Homo sapiens, GI-ME-N;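 also: growth inhibition of human GI-ME-N cells, read out with a cell viability assay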
Description: SANGER: Inhibition of human GI-ME-N cell growth in a cell viability assay.

JVM-3 = format: functional, cell-based; conditions: Homo sapiens;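 also: growth inhibition of human JVM-3 cells, read out with a cell viability assay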
Description: SANGER: Inhibition of human JVM-3 cell growth in a cell viability assay.

KALS-1 = format: functional, cell-based, Homo sapiens; conditions: Homo sapiens, KALS-1;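 also: growth inhibition of KALS-1 cells, determined with a cell viability assay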
Description: SANGER: Inhibition of human KALS-1 cell growth in a cell viability assay.

KMOE-2 = format: functional, cell-based; conditions: Homo sapiens;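 also: growth inhibition of human KMOE-2 cells, read out with a cell viability assay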
Description: SANGER: Inhibition of human KMOE-2 cell growth in a cell viability assay.

KP-N-YN = format: functional, cell-based; conditions: Homo sapiens;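 also: growth inhibition of KP-N-YN cells, read out with a cell viability assay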
Description: SANGER: Inhibition of human KP-N-YN cell growth in a cell viability assay.

KS-1 = format: functional, cell-based, Homo sapiens; conditions: Homo sapiens, KS-1;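 also: growth inhibition of KS-1 cells, read out with a cell viability assay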
Description: SANGER: Inhibition of human KS-1 cell growth in a cell viability assay.

L-363 = format: functional, cell-based; conditions: Homo sapiens
Description: SANGER: Inhibition of human L-363 cell growth in a cell viability assay.

MHH-NB-11 = format: functional, cell-based, Homo sapiens; conditions: Homo sapiens, MHH-NB-11;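 also: growth inhibition of human MHH-NB-11 cells, read out by a cell viability assay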
Description: SANGER: Inhibition of human MHH-NB-11 cell growth in a cell viability assay.

MOLT-16 = format: functional, cell-based; conditions: Homo sapiens;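 also: growth inhibition of human MOLT-16 cells, read out with a cell viability assay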
Description: SANGER: Inhibition of human MOLT-16 cell growth in a cell viability assay.

MZ7-mel = format: functional, cell-based, Homo sapiens; conditions: Homo sapiens, MZ7-mel;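 also: growth inhibition of human MZ7-mel cells, measured by a cell viability assay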
Description: SANGER: Inhibition of human MZ7-mel cell growth in a cell viability assay.

NCI-H1770 = format: functional, cell-based; conditions: Homo sapiens;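 also: growth inhibition of NCI-H1770 cells determined with a viability readout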
Description: SANGER: Inhibition of human NCI-H1770 cell growth in a cell viability assay.

NCI-H69 = format: functional, cell-based; conditions: Homo sapiens;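 also: growth inhibition of the cell line, read out with a cell viability assay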
Description: SANGER: Inhibition of human NCI-H69 cell growth in a cell viability assay.

SBC-1 = format: functional, cell-based; conditions: Homo sapiens;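 also: cell viability assay measuring growth inhibition of the SBC-1 cell line, IC50 being the concentration that halves growth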
Description: SANGER: Inhibition of human SBC-1 cell growth in a cell viability assay.

SK-LMS-1 = format: functional, cell-based, Homo sapiens; conditions: Homo sapiens, SK-LMS-1;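 also: growth inhibition of human SK-LMS-1 cells, read out with a cell viability assay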
Description: SANGER: Inhibition of human SK-LMS-1 cell growth in a cell viability assay.

TE-9 = format: functional, cell-based, Homo sapiens; conditions: Homo sapiens, TE-9;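 also: cell growth inhibition, measured with a cell viability readout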
Description: SANGER: Inhibition of human TE-9 cell growth in a cell viability assay.

TGBC1TKB = format: functional, cell-based, Homo sapiens; conditions: Homo sapiens, TGBC1TKB;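 also: growth inhibition of TGBC1TKB cells, read out by a cell viability assay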
Description: SANGER: Inhibition of human TGBC1TKB cell growth in a cell viability assay.

UACC-257 = format: functional, cell-based, Homo sapiens; conditions: Homo sapiens, UACC-257
Description: SANGER: Inhibition of human UACC-257 cell growth in a cell viability assay.

VA-ES-BJ = format: functional, cell-based, Homo sapiens; conditions: Homo sapiens, VA-ES-BJ;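 also: growth inhibition of the VA-ES-BJ cell line, read out by a cell viability assay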
Description: SANGER: Inhibition of human VA-ES-BJ cell growth in a cell viability assay.

Ca9-22 = format: functional, cell-based, Homo sapiens; conditions: Homo sapiens, Ca9-22;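 also: growth inhibition of Ca9-22 cells, read out with a cell viability assay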
Description: SANGER: Inhibition of human Ca9-22 cell growth in a cell viability assay.

HCC1806 = format: functional, cell-based, Homo sapiens; conditions: Homo sapiens, HCC1806;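 also: growth inhibition of the cancer cell line, determined with a cell viability assay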
Description: SANGER: Inhibition of human HCC1806 cell growth in a cell viability assay.

HCC1954 = format: functional, cell-based, Homo sapiens; conditions: Homo sapiens, HCC1954;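 also: growth inhibition of human HCC1954 cells, read out with a cell viability assay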
Description: SANGER: Inhibition of human HCC1954 cell growth in a cell viability assay.

HT-1080 = format: functional, cell-based, Homo sapiens; conditions: Homo sapiens, HT-1080
Description: SANGER: Inhibition of human HT-1080 cell growth in a cell viability assay.

KU-19-19 = format: functional, cell-based, Homo sapiens; conditions: Homo sapiens, KU-19-19
Description: SANGER: Inhibition of human KU-19-19 cell growth in a cell viability assay.

KYSE-270 = format: functional, cell-based, Homo sapiens; conditions: Homo sapiens, KYSE-270;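 also: cell growth inhibition measured with a viability assay in the human KYSE-270 line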
Description: SANGER: Inhibition of human KYSE-270 cell growth in a cell viability assay.

MC-IXC = format: functional, cell-based, Homo sapiens; conditions: Homo sapiens, MC-IXC;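 also: growth inhibition of MC-IXC cells, read out with a cell viability assay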
Description: SANGER: Inhibition of human MC-IXC cell growth in a cell viability assay.

MEL-HO = format: functional, cell-based, Homo sapiens; conditions: Homo sapiens, MEL-HO
Description: SANGER: Inhibition of human MEL-HO cell growth in a cell viability assay.

MIA PaCa-2 = format: functional, cell-based, Homo sapiens; conditions: Homo sapiens, MIA PaCa-2;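 also: growth inhibition of MIA PaCa-2 cells, read out with a cell viability assay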
Description: SANGER: Inhibition of human MIA-PaCa-2 cell growth in a cell viability assay.

NCI-H1437 = format: functional, cell-based, Homo sapiens; conditions: Homo sapiens, NCI-H1437;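 also: growth inhibition of human NCI-H1437 cells, read out by a cell viability assay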
Description: SANGER: Inhibition of human NCI-H1437 cell growth in a cell viability assay.

NCI-H1623 = format: functional, cell-based, Homo sapiens; conditions: Homo sapiens, NCI-H1623;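 also: cell viability assay used as the read-out for growth inhibition of NCI-H1623 cells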
Description: SANGER: Inhibition of human NCI-H1623 cell growth in a cell viability assay.

NCI-H1793 = format: functional, cell-based, Homo sapiens; conditions: Homo sapiens, NCI-H1793;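 also: cell growth inhibition, read out by a cell viability assay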
Description: SANGER: Inhibition of human NCI-H1793 cell growth in a cell viability assay.

NCI-H292 = format: functional, cell-based, Homo sapiens; conditions: Homo sapiens, NCI-H292;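 also: growth inhibition of NCI-H292 cells, read out with a cell viability assay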
Description: SANGER: Inhibition of human NCI-H292 cell growth in a cell viability assay.

NCI-H358 = format: functional, cell-based, Homo sapiens; conditions: Homo sapiens, NCI-H358;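 also: growth inhibition of NCI-H358 human cells, read out with a cell viability assay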
Description: SANGER: Inhibition of human NCI-H358 cell growth in a cell viability assay.

NCI-N87 = format: functional, cell-based, Homo sapiens; conditions: Homo sapiens, NCI-N87;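 also: growth inhibition of human NCI-N87 cells, read out with a cell viability assay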
Description: SANGER: Inhibition of human NCI-N87 cell growth in a cell viability assay.

NY = format: functional, cell-based, Homo sapiens; conditions: Homo sapiens, NY
Description: SANGER: Inhibition of human NY cell growth in a cell viability assay.

OE33 = format: functional, cell-based, Homo sapiens; conditions: Homo sapiens, OE33;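 also: growth inhibition of human OE33 cells, measured by a cell viability assay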
Description: SANGER: Inhibition of human OE33 cell growth in a cell viability assay.

PANC-03-27 = format: functional, cell-based, Homo sapiens; conditions: Homo sapiens, PANC-03-27
Description: SANGER: Inhibition of human PANC-03-27 cell growth in a cell viability assay.

RVH-421 = format: functional, cell-based, Homo sapiens; conditions: Homo sapiens, RVH-421
Description: SANGER: Inhibition of human RVH-421 cell growth in a cell viability assay.

SK-HEP1 = format: functional, cell-based, Homo sapiens, SK-HEP-1; conditions: Homo sapiens, SK-HEP1;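 also: cell viability readout used to quantify reduction in proliferation of human SK-HEP-1 cells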
Description: SANGER: Inhibition of human SK-HEP-1 cell growth in a cell viability assay.

SK-MEL3 = format: functional, cell-based, Homo sapiens, SK-MEL-3; conditions: Homo sapiens, SK-MEL3;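 also: growth inhibition of human SK-MEL-3 cells, read out with a cell viability assay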
Description: SANGER: Inhibition of human SK-MEL-3 cell growth in a cell viability assay.

SN12C = format: functional, cell-based, Homo sapiens; conditions: Homo sapiens, SN12C;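 also: growth inhibition of human SN12C cells, measured by a cell viability assay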
Description: SANGER: Inhibition of human SN12C cell growth in a cell viability assay.

SNU-449 = format: functional, cell-based, Homo sapiens; conditions: Homo sapiens, SNU-449
Description: SANGER: Inhibition of human SNU-449 cell growth in a cell viability assay.

SW1990 = format: functional, cell-based, Homo sapiens; conditions: Homo sapiens, SW1990;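 also: cell growth inhibition determined with a viability assay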
Description: SANGER: Inhibition of human SW1990 cell growth in a cell viability assay.

T84 = format: functional, cell-based, Homo sapiens; conditions: Homo sapiens, T84;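 also: growth inhibition measured with a cell viability readout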
Description: SANGER: Inhibition of human T84 cell growth in a cell viability assay.

CWR22R = format: functional, cell-based, Homo sapiens; conditions: Homo sapiens, 22Rv1;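 also: growth inhibition of 22Rv1 cells, read out with a cell viability assay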
Description: SANGER: Inhibition of human 22RV1 cell growth in a cell viability assay.

639-V = format: functional, cell-based, Homo sapiens; conditions: Homo sapiens, 639-V;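 also: growth inhibition of 639-V cells, read out with a cell viability assay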
Description: SANGER: Inhibition of human 639-V cell growth in a cell viability assay.

CAKI-1 = format: functional, cell-based, Homo sapiens; conditions: Homo sapiens, CAKI-1;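 also: growth inhibition of CAKI-1 cells, measured by a cell viability assay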
Description: SANGER: Inhibition of human CAKI-1 cell growth in a cell viability assay.

CAL-85-1 = format: functional, cell-based; conditions: Homo sapiens;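 also: growth inhibition of human CAL-85-1 cells, read out with a cell viability assay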
Description: SANGER: Inhibition of human CAL-85-1 cell growth in a cell viability assay.

CAPAN-1 = format: functional, cell-based, Homo sapiens; conditions: Homo sapiens, CAPAN-1;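 also: growth suppression of CAPAN-1 cells, read out by a cell viability assay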
Description: SANGER: Inhibition of human CAPAN-1 cell growth in a cell viability assay.

CCc1nc(N)nc(N)c1-c1ccc(Cl)cc1 [PYRIMETHAMINE]
IC50 (D-502MG): > 20 µM | IC50 (D-542MG): > 20 µM | IC50 (GI-ME-N): 1.4 µM | IC50 (JVM-3): > 20 µM | IC50 (KALS-1): 12 µM | IC50 (KMOE-2): > 20 µM | IC50 (KP-N-YN): > 20 µM | IC50 (KS-1): > 20 µM | IC50 (L-363): > 20 µM | IC50 (MHH-NB-11): 13.7 µM | IC50 (MOLT-16): 15.1 µM | IC50 (MZ7-mel): 7.56 µM | IC50 (NCI-H1770): > 20 µM | IC50 (NCI-H69): > 20 µM | IC50 (SBC-1): > 20 µM | IC50 (SK-LMS-1): > 20 µM | IC50 (TE-9): > 20 µM | IC50 (TGBC1TKB): > 20 µM | IC50 (UACC-257): 3.84 µM | IC50 (VA-ES-BJ): 15.2 µM

O=C(/C=C/c1ccccc1)NC(NC(=S)Nc1cccc2cccnc12)C(Cl)(Cl)Cl (centres undefined) [SALUBRINAL]
IC50 (D-502MG): > 16 µM | IC50 (D-542MG): 13.4 µM | IC50 (GI-ME-N): > 16 µM | IC50 (JVM-3): > 16 µM | IC50 (KALS-1): > 16 µM | IC50 (KMOE-2): 13.1 µM | IC50 (KP-N-YN): > 16 µM | IC50 (KS-1): > 16 µM | IC50 (L-363): 13.6 µM | IC50 (MHH-NB-11): > 16 µM | IC50 (MOLT-16): 14 µM | IC50 (MZ7-mel): > 16 µM | IC50 (NCI-H1770): > 16 µM | IC50 (NCI-H69): > 16 µM | IC50 (SBC-1): > 16 µM | IC50 (SK-LMS-1): > 16 µM | IC50 (TE-9): > 16 µM | IC50 (TGBC1TKB): > 16 µM | IC50 (UACC-257): > 16 µM | IC50 (VA-ES-BJ): > 16 µM

COc1cc([C@@H]2c3cc4c(cc3[C@@H](O[C@@H]3O[C@@H]5CO[C@@H](C)O[C@H]5[C@H](O)[C@H]3O)[C@H]3COC(=O)[C@H]23)OCO4)cc(OC)c1O [ETOPOSIDE]
IC50 (Ca9-22): 2.19 µM | IC50 (D-502MG): > 16 µM | IC50 (D-542MG): > 16 µM | IC50 (GI-ME-N): 9.83 µM | IC50 (HCC1806): 4.73 µM | IC50 (HCC1954): 10 µM | IC50 (HT-1080): 0.109 µM | IC50 (JVM-3): > 16 µM | IC50 (KALS-1): 10.3 µM | IC50 (KMOE-2): 8.04 µM | IC50 (KS-1): 0.334 µM | IC50 (KU-19-19): > 16 µM | IC50 (KYSE-270): 0.252 µM | IC50 (L-363): 6.59 µM | IC50 (MC-IXC): 0.115 µM | IC50 (MEL-HO): 0.729 µM | IC50 (MHH-NB-11): 0.524 µM | IC50 (MIA PaCa-2): 2.66 µM | IC50 (MOLT-16): 12.5 µM | IC50 (MZ7-mel): 4.3 µM | IC50 (NCI-H1437): 3.38 µM | IC50 (NCI-H1623): 14 µM | IC50 (NCI-H1770): 3.87 µM | IC50 (NCI-H1793): 5.31 µM | IC50 (NCI-H292): 4.71 µM | IC50 (NCI-H358): 3.15 µM | IC50 (NCI-H69): 8.18 µM | IC50 (NCI-N87): 15.8 µM | IC50 (NY): 4.49 µM | IC50 (OE33): 5.12 µM | IC50 (PANC-03-27): 1.64 µM | IC50 (RVH-421): > 16 µM | IC50 (SBC-1): > 16 µM | IC50 (SK-HEP1): 0.267 µM | IC50 (SK-LMS-1): 0.553 µM | IC50 (SK-MEL3): 10.1 µM | IC50 (SN12C): 1.88 µM | IC50 (SNU-449): > 16 µM | IC50 (SW1990): 5.64 µM | IC50 (T84): > 16 µM | IC50 (CWR22R): 1.53 µM | IC50 (639-V): 1.01 µM | IC50 (CAKI-1): 6.65 µM | IC50 (CAL-85-1): 2.16 µM | IC50 (TE-9): 0.0559 µM | IC50 (TGBC1TKB): > 16 µM | IC50 (UACC-257): > 16 µM | IC50 (VA-ES-BJ): 0.415 µM | IC50 (CAPAN-1): 1.25 µM
